Reference: US10287328B2, “Treatment of diabetes, toll-like receptor 4 modulators and methods for using the same” (KeMyth Biotech Co., Ltd., priority 2016, dated 2019)

Columns and labels:
TLR4 = test: LPS-induced PMN transendothelial migration, PMNs from wild type C3H/HeN mice; assay type: cell-based
Protocol: To obtain mice neutrophils from TLR4-deficient [TLR4(−/−)] C3H/HeJ mice and wild type C3H/HeN mice, inflammation was induced by 0.1 ml of uric acid solution into the peritoneal cavity of the mouse. The uric acid solution (noncrystalline form) was prepared by mixing with saline (10% [wt/vol]) and sonicated for 10 min. Immediately before inoculation, the milky white precipitated uric acid solution was shaken vigorously. Peritoneal exudate cells were harvested 4, 18, or 24 h after injection by two lavages of the peritoneal cavity with 5 ml of cold phosphate-buffered saline (PBS; total volume, 10 ml). Uric acid-induced peritoneal cells (UAPMN) were washed by centrifugation at 200×g for 10 min at 4° C. Followed by hypotonic lysis to eliminate red blood cells, centrifugation and an additional wash were performed. The cells were then resuspended in Krebs-Ringer phosphate buffer (KRG; pH 7.3). The numbers and populations of peritoneal exudate cells were determined by staining the nuclei with Turk reagent and by cytospin centrifugation followed by May-Grünwald-Giemsa staining, respectively. Uric acid injection into the peritoneal cavity gave a yield of 1 to 2×10^7 cells/mouse depending on time of incubation (4 hr). The levels of purity of the uric acid-induced PMN were 95% after 4 h postinjection. Viability of the isolated neutrophils exceeded 95% as determined by trypan blue exclusion. The PMN from TLR4(−/−) C3H/HeJ mice and wild type C3H/HeN mice were then used for PMN transmigration Assay.
Neutrophils from human were isolated blood that was drawn in a syringe containing preservative-free heparin (20 U/ml final), and mixed with an equal volume of PBS containing 3% dextran and then incubated for 20 min at room temperature. The leukocyte-rich plasma (upper layer) was collected and pellet cells was obtained from the plasma by centrifuge and resuspended in 0.9% NaCl. Layer 10 ml Ficoll-Hypaque solution beneath the cell suspension. After centrifuge 1500×g for 20 min, aspirate the Ficoll-Hypaque layer, leaving the neutrophil/RBC pellet. Cells were subjected to hypotonic lysis by resuspending each neutrophil/RBC pellet in cold 0.2% NaCl for 30 sec. At the end of this period, restore isotonicity by adding ice-cold 1.6% NaCl. After centrifuge, resuspend cells in ice-cold PBS/glucose buffer. Neutrophils from mice were isolated from the peritoneum as previously described. See, e.g., Rabes et al., Curr Top Microbiol Immunol 397:215-227 (2016). The cell concentration was adjusted to […]. The viability of the isolated neutrophils exceeded 95%, as determined by Trypan blue exclusion.
Transendothelial migration was performed by using a Transwell system. Transwell filters were pre-seeded with HUVEC monolayers for 24 hrs and transferred to clean 24-well plates. HUVECs were washed twice with DPBS, 500 μl of ECM was added to the Transwell filter compartment and 10^6 neutrophils were then added in upper chamber. Transendothelial migration was stimulated by addition of LPS to the lower chamber to a final concentration of 1 μg/ml. Cells were incubated with the endothelial cells for 1 h at 37° C. At the conclusion of the incubation, migrated cells were collected from the lower chamber and counted in a hemacytometer in triplicate. Percent PMN transmigration was calculated by dividing the number of PMN recovered from the lower chamber by the number of PMN initially added.
PMN transendothelial migration plays an important role in early stage of atherogenesis. […].

[1] = tested on: neointima formation of aorta; test: Neointima formation of aorta (HE stain) in STZ-treated HFD-fed rats; assay type: in vivo
Protocol: The ascending part of aorta were taken from mice, including control health mice and HFD induced diabetic mice, with and without treatment of C70PLY4, and kept in 10% formalin buffered for 24 h. The specimens were routinely embedded in paraffin blocks and cut in transversal sections (3 μm). The slides were stained with hematoxylin and eosin. The specimens were analyzed with light microscope.
The present study determined if C70PLY4 attenuates the status of atherosclerosis in HFD-fed rats.

[2] = Serum insulin level (sandwich ELISA) in HFD-induced, STZ-injected type 2 diabetic rats; assay type: in vivo, Sprague-Dawley rats; conditions: STZ-injected HFD-fed rats, 2 mg/kg/3 days i.p. for 30 days, compared to STZ+vehicle
Protocol: (§1) The Sprague-Dawley rats were allocated to two dietary regimens by feeding either normal or HFD ad libitum, for the initial period of 2 weeks. After 2 weeks of dietary manipulation, the group of rats fed HFD were injected intraperitoneally (i.p.) with a low dose of STZ (35 mg/kg b.w.), while the respective control rats were given vehicle citrate buffer (pH 4.5) in a dose volume of 1 mL/kg, i.p. Seven days after STZ injection, rats were screened for blood glucose levels. Overnight fasted (10-12 hours) animals were given glucose (3 g/kg b.w.) by gastric intubation. After 2 hours of oral administration, blood samples were taken from lateral tail vein, left to coagulate and centrifuged; then serum glucose concentration was measured. Rats having serum glucose ≥200 mg/dL after 2 hours of glucose intake were considered diabetic and selected for further pharmacological studies. The rats were allowed to continue to feed on their respective diets until the end of the study (16). […]
The levels of insulin, sICAM-1, sVCAM-1, and E-selectin in serum were determined by using sandwich ELISA (R&D) according to manufacturer's protocols.

MD2/TLR4 interaction = MD2/TLR4 interaction (Homo sapiens, UniProt O00206); test: In vitro protein competition binding assay for MD2/TLR4 interaction; conditions: MD2 50 nM
MD2/TLR4 interaction, sequence (O00206 24-631): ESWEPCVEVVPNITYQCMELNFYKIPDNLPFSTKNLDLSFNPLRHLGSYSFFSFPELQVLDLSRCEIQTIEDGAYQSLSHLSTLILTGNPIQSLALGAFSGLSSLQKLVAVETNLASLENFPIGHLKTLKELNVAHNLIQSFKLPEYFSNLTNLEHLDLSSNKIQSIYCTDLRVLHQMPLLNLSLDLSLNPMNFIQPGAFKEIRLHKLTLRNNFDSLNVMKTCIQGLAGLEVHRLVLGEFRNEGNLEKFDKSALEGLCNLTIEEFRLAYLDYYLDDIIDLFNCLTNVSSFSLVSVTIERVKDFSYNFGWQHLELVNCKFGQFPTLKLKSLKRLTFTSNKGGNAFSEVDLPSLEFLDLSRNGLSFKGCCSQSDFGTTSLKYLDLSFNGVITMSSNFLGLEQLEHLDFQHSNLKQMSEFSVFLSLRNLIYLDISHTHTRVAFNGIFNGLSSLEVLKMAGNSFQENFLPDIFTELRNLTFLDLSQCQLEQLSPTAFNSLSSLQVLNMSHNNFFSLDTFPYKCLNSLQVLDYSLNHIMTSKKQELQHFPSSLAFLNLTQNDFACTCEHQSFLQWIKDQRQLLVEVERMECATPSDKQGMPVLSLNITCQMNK
Protocol: The recombinant TLR4 protein was diluted in PBS (2 μg/mL) and immobilized on a 96-well (100 ng/well) ELISA plate by incubation at 37° C. for 2 h. The wells were washed three times with PBS, followed by blocking with the addition of 300 μL 5% BSA in PBS at ambient temperature overnight. Then, the plate was rewashed three times with PBST before performed competition binding assay. The binding of MD2 (50 nM) to TLR4 was competed by adding various amounts (2-fold serial dilution from 50 μM to 3.05 nM) of C70PLY4, N35PLY4, or M50PLY4 peptide, and the residual binding was examined using anti-MD2 and anti-mouse-IgG-HRP antibodies diluted in 1% BSA as described in herein.

[3] = Blood glucose level in HFD-induced, STZ-injected type 2 diabetic rats; assay type: in vivo, Sprague-Dawley rats; conditions: STZ-injected HFD-fed rats, 2 mg/kg/3 days i.p. for 30 days, compared to STZ+vehicle
Protocol: as §1
Blood Glucose Test Strips and Blood Glucose Monitoring System were used to determine whole blood glucose levels on a drop of tail blood collected between 10 am and midday. Glucose concentration was determined colorimetrically using a glucose oxidase/peroxidase reagent kit. Samples were incubated with 100 μl of assay reagent at 37° C. for 30 min and measured at 540 nm. […]

In the case of “QDLTAHFTTSIPLKGNVRNLSVKIRECTGLAWEWWRTVYEKTDLPLVRKRTISIWGTTLYPQVEDKVEND [C70PLY4]”, the “PMNs migration, WT mice model (FIG. 10)” value (TLR4; PMNs from C3H/HeN mice, LPS 1 μg/ml, HUVEC monolayer Transwell) is reported as “significant inhibition of PMNs cell migration”, the “LPS induced PMN migration (FIGS. 11-12)” value (TLR4; WT mice model, LPS-induced) is reported as “inhibitory effects” and the “neointima formation of aorta induced by STZ” value [1] is reported as “significantly attenuated the status of neointima formation”. For the same sequence, the blood insulin levels [2] was “increased blood insulin levels”, the “concentration at which MD2 protein is completely competed away” value (MD2/TLR4 interaction; TLR4-coated well) was 6.25 µM and the “blocking capability for MD2 and TLR4 protein interaction (in words)” value (MD2/TLR4 interaction; peptide 50 μM to 3.05 nM) was “dose-dependent blocking capability”. The blood glucose levels [3] was “decreased blood glucose”.
